Data: the CheMixHub ionic liquid set

Assay: xn = mol fraction of the nth substance listed

CCCCCCCCn1cc[n+](CCCCCCCC)c1.O=S(=O)([N-]S(=O)(=O)C(F)(F)F)C(F)(F)F + O
100 kPa, x2 = 0.1246
Settings	viscosity [mPa·s]
303.15 K	92.9
308.15 K	73.29
358.15 K	13.27

CCCC[n+]1ccccc1C.F[B-](F)(F)F + O
298.15 K, 101 kPa
Settings	electrical conductivity [S/m]
x1 = 0.0002702	0.13
x1 = 0.0004161	0.188
x1 = 0.0005097	0.233
x1 = 0.0007329	0.319
x1 = 0.0008948	0.368
x1 = 0.001084	0.463
x1 = 0.001244	0.516
x1 = 0.001427	0.588
x1 = 0.001581	0.634
x1 = 0.001768	0.707
x1 = 0.001923	0.76
x1 = 0.002048	0.787
x1 = 0.00219	0.841
x1 = 0.002294	0.878
x1 = 0.002423	0.917
x1 = 0.002448	0.92
x1 = 0.002543	0.96
x1 = 0.002708	1
x1 = 0.002791	1.03

C[N+](C)(CCCS(=O)(=O)O)C1CCCCC1.Cc1ccc(S(=O)(=O)[O-])cc1 + O
101 kPa
Settings	viscosity [mPa·s]
303.15 K, x1 = 1	113700
308.15 K, x1 = 0.06028	6.925
308.15 K, x1 = 1	56930
313.15 K, x1 = 0.01059	1.118
313.15 K, x1 = 0.06028	6
318.15 K, x1 = 0.01059	1.007
318.15 K, x1 = 0.1459	38.93
328.15 K, x1 = 0.01059	0.8334
328.15 K, x1 = 0.02771	1.636
328.15 K, x1 = 0.06028	3.944

CCCn1cc[n+](C)c1C.O=S(=O)([N-]S(=O)(=O)C(F)(F)F)C(F)(F)F + O=C1CCCO1
100 kPa, frequency 0.005 MHz
Settings	electrical conductivity [S/m]
293.15 K, x2 = 0.2006	0.28
293.15 K, x2 = 0.6992	0.992
293.15 K, x2 = 0.8002	1.19
293.15 K, x2 = 0.8999	1.2
298.15 K, x2 = 0	0.265
303.15 K, x2 = 0.1289	0.395
303.15 K, x2 = 0.8508	1.5
308.15 K, x2 = 0.2006	0.537
308.15 K, x2 = 0.6992	1.41
308.15 K, x2 = 0.9495	1.11
313.15 K, x2 = 0.6992	1.57
313.15 K, x2 = 0.8508	1.77
313.15 K, x2 = 0.8999	1.68
318.15 K, x2 = 0.4952	1.32
323.15 K, x2 = 0.2006	0.864

COCCn1cc[n+](C)c1.N#C[S-] + O=C1CCCO1
101 kPa
Settings	electrical conductivity [S/m]	viscosity [mPa·s]
288.15 K, x1 = 0.7036	0.526	34.8
288.15 K, x1 = 1	0.223	86
293.15 K, x1 = 0.8038	0.505	39.2
298.15 K, x1 = 0.3001	1.63	4.18
298.15 K, x1 = 1	0.41	53
303.15 K, x1 = 0.3001	1.8	3.68
308.15 K, x1 = 0.6015	1.36	9.6
308.15 K, x1 = 0.9012	0.791	27.2
313.15 K, x1 = 0.1027	1.99	1.82
313.15 K, x1 = 0.5006	1.79	5.6
313.15 K, x1 = 0.7036	1.33	11.8
318.15 K, x1 = 0.3001	2.44	2.59
318.15 K, x1 = 0.4001	2.25	3.46
323.15 K, x1 = 0.1999	2.68	1.85
323.15 K, x1 = 0.4001	2.48	3.1
323.15 K, x1 = 0.5006	2.25	4.26
323.15 K, x1 = 0.7036	1.75	8.8
328.15 K, x1 = 0.9012	1.52	13.9
333.15 K, x1 = 0.1027	–	1.3
338.15 K, x1 = 0.6015	2.74	4.26
338.15 K, x1 = 0.7036	2.46	6
343.15 K, x1 = 0.5006	3.3	2.71
343.15 K, x1 = 0.7036	2.7	5.4

CCCC[n+]1ccn(C)c1.[Br-] + O=C1O[C@H]([C@@H](O)CO)C(O)=C1O + O
viscosity [mPa·s], 100 kPa
Settings	293.15 K	298.15 K	303.15 K	308.15 K	313.15 K	318.15 K
x2 = 0, x1 = 0.0009002	1.033	0.918	0.823	0.753	0.676	0.618
x2 = 0, x1 = 0.001799	1.057	0.938	0.84	0.758	0.689	0.631
x2 = 0, x1 = 0.002696	1.069	1	0.905	0.795	0.749	0.68
x2 = 0.0003657, x1 = 0.0008999	1.04	0.925	0.831	0.761	0.684	0.626
x2 = 0.0003693, x1 = 0.001798	1.064	0.945	0.847	0.765	0.696	0.638
x2 = 0.000373, x1 = 0.002695	1.073	1.005	0.912	0.802	0.756	0.687
x2 = 0.0007293, x1 = 0.0008995	1.048	0.933	0.839	0.769	0.691	0.633
x2 = 0.0007366, x1 = 0.001797	1.071	0.952	0.854	0.772	0.703	0.645
x2 = 0.0007401, x1 = 0.002694	1.08	1.013	0.919	0.808	0.763	0.695
x2 = 0.001093, x1 = 0.0008992	1.055	0.94	0.845	0.775	0.697	0.639
x2 = 0.0011, x1 = 0.001797	1.081	0.961	0.862	0.78	0.71	0.651
x2 = 0.001111, x1 = 0.002693	1.088	1.02	0.927	0.816	0.77	0.701
x2 = 0.001456, x1 = 0.0008989	1.063	0.947	0.851	0.781	0.703	0.644
x2 = 0.001467, x1 = 0.001796	1.09	0.969	0.869	0.786	0.716	0.657
x2 = 0.001485, x1 = 0.002692	1.097	1.029	0.935	0.823	0.777	0.708
x2 = 0.001819, x1 = 0.0008986	1.071	0.954	0.859	0.788	0.71	0.65
x2 = 0.001833, x1 = 0.001795	1.097	0.976	0.876	0.793	0.723	0.664
x2 = 0.001851, x1 = 0.002691	1.106	1.038	0.941	0.83	0.785	0.715
x2 = 0.002183, x1 = 0.0008982	1.079	0.961	0.865	0.795	0.717	0.657
x2 = 0.002201, x1 = 0.001795	1.104	0.982	0.882	0.798	0.728	0.669
x2 = 0.002221, x1 = 0.00269	1.114	1.045	0.948	0.837	0.792	0.722

CCCC[N+](CCCC)(CCCC)CCCC.[Cl-] + O=C(O)[C@@H]1CCCN1
100 kPa
Settings	electrical conductivity, 313.15 K [S/m]	electrical conductivity, 323.15 K [S/m]	electrical conductivity, 333.15 K [S/m]	electrical conductivity, 343.15 K [S/m]	electrical conductivity, 353.15 K [S/m]	viscosity, 313.15 K [mPa·s]	viscosity, 323.15 K [mPa·s]	viscosity, 333.15 K [mPa·s]	viscosity, 343.15 K [mPa·s]	viscosity, 353.15 K [mPa·s]
x1 = 0.875	0.0343	0.0411	0.065	0.0965	0.127	389	172	97.5	54.2	32.1
x1 = 0.8889	0.0137	0.0249	0.0423	0.0735	0.108	901	306	171	85	53.8
x1 = 0.9	0.0446	0.0612	0.0869	0.11	0.142	1051	534	233	131	77.3

CCCC[n+]1ccn(C)c1.[Br-] + O=C(O)c1cccnc1 + O
viscosity [mPa·s], 100 kPa
Settings	293.15 K	298.15 K	303.15 K	308.15 K	313.15 K	318.15 K
x2 = 0, x1 = 0.0009002	1.033	0.918	0.823	0.753	0.676	0.619
x2 = 0, x1 = 0.001799	1.057	0.938	0.84	0.758	0.689	0.631
x2 = 0, x1 = 0.002696	1.069	1	0.905	0.795	0.749	0.68

CC[n+]1ccn(C)c1.[Cl-] + O=C[C@H](O)[C@@H](O)[C@H](O)[C@H](O)CO
373 K, 100 kPa
Settings	viscosity [mPa·s]
x2 = 0	36
x2 = 0.0419	66

CC[n+]1ccn(C)c1.[Cl-] + O=C[C@H](O)[C@@H](O)[C@H](O)[C@H](O)CO + CC#N
373 K, 100 kPa
Settings	viscosity [mPa·s]
x2 = 0, x1 = 0.359	3
x2 = 0.002991, x1 = 0.3578	3
x2 = 0.01533, x1 = 0.3535	4
x2 = 0.0316, x1 = 0.3476	5
x2 = 0.04909, x1 = 0.3413	6

CC[P+](CC)(CC)CCOC.O=S(=O)([N-]S(=O)(=O)C(F)(F)F)C(F)(F)F + O=S(=O)([N-]S(=O)(=O)C(F)(F)F)C(F)(F)F.[Li+]
101.33 kPa
Settings	electrical conductivity, 298.2 K [S/m]	electrical conductivity, 312.2 K [S/m]	electrical conductivity, 361.3 K [S/m]	viscosity, 298.2 K [mPa·s]	viscosity, 355.3 K [mPa·s]
x2 = 0.25	1	–	–	170	17
x2 = 0.39	–	0.8	1.5	–	–

CCCC[N+](CCCC)(CCCC)CCCC.[Cl-] + OCC(O)CO
100 kPa, x1 = 0.333
Settings	electrical conductivity [S/m]	viscosity [mPa·s]
293.15 K	0.0303	870
303.15 K	0.0527	500
313.15 K	0.0885	298
323.15 K	0.144	184
333.15 K	0.228	117

CC[n+]1ccn(C)c1.[Cl-] + OCC(O)CO
Settings	viscosity [mPa·s]
303.15 K, 100 kPa, x1 = 0.333	126.9
313.15 K, 101 kPa, x1 = 0.667	135.5

[Cl-].c1ccc(C[P+](c2ccccc2)(c2ccccc2)c2ccccc2)cc1 + OCC(O)CO
101 kPa, x2 = 0.9412
Settings	electrical conductivity [S/m]	viscosity [mPa·s]
298.1 K	0.006977	–
307.07 K	–	654
322.36 K	–	238
322.96 K	0.03314	–
332.98 K	0.04535	–
338.06 K	0.05407	–
343.13 K	0.0593	–
348.08 K	0.075	–

[Cl-].c1ccc(C[P+](c2ccccc2)(c2ccccc2)c2ccccc2)cc1 + OCCO
Settings	electrical conductivity [S/m]	viscosity [mPa·s]
293.15 K, 101 kPa, x1 = 0.083	0.191	60.6
303.15 K, 101 kPa, x1 = 0.08333	–	68.3
313.15 K, 101 kPa, x1 = 0.083	0.298	32.2
313.15 K, 101 kPa, x1 = 0.08333	–	54.2
323.15 K, 100 kPa, x1 = 0.0833	–	38.5
323.15 K, 101 kPa, x1 = 0.08333	–	41.8
333.15 K, 101 kPa, x1 = 0.08333	–	33
338.15 K, 101.3 kPa, x2 = 0.75	0.02	86
343.15 K, 100 kPa, x1 = 0.0833	–	24.6
343.15 K, 101 kPa, x1 = 0.08333	–	24.2
353.15 K, 101 kPa, x1 = 0.08333	–	20.7

[Cl-].c1ccc(C[P+](c2ccccc2)(c2ccccc2)c2ccccc2)cc1 + OCCOCCO
101 kPa, x2 = 0.875
Settings	electrical conductivity [S/m]	viscosity [mPa·s]
313.15 K	0.0935	64.2
353.15 K	0.212	17.1

CCCC[N+](CCCC)(CCCC)CCCC.[Cl-] + OCCOCCOCCO
Settings	electrical conductivity, 293.15 K [S/m]	electrical conductivity, 303.15 K [S/m]	electrical conductivity, 313.15 K [S/m]	electrical conductivity, 323.15 K [S/m]	electrical conductivity, 333.15 K [S/m]	viscosity, 293.15 K [mPa·s]	viscosity, 303.15 K [mPa·s]	viscosity, 313.15 K [mPa·s]	viscosity, 323.15 K [mPa·s]	viscosity, 333.15 K [mPa·s]
100 kPa, x1 = 0.1667	0.0683	0.099	0.141	0.196	0.268	126	82.6	55.6	38.4	27.1
100 kPa, x1 = 0.333	0.049	0.0739	0.109	0.156	0.219	277	179	119	81.4	56.8
101 kPa, x2 = 0.25	–	–	–	–	–	–	–	–	910	–
